ChEMBL document CHEMBL1201862, “PubChem BioAssay data set” (2004)
Active and inactive are the calls of the source. Rule as the data show it, for most assays here: actives have a measured EC50 and inactives only a lower limit.

Key:
[1] = molecular target: T1, Heat shock factor protein 1 (Mus musculus, UniProt P38532); assay: enhancement of HSF1-driven luciferase signal – cell-based, NIH3T3, luminescence, dose retest, confirmation (AID 435004); format: functional;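 also: stress induced by proteasome inhibitor MG132 added 30 min after compound; luciferase reporter driven by HSF1 response element in NIH3T3 cells; actives raise luminescence as potentiators of the MG132 stress response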
T1 sequence (P38532 whole entry): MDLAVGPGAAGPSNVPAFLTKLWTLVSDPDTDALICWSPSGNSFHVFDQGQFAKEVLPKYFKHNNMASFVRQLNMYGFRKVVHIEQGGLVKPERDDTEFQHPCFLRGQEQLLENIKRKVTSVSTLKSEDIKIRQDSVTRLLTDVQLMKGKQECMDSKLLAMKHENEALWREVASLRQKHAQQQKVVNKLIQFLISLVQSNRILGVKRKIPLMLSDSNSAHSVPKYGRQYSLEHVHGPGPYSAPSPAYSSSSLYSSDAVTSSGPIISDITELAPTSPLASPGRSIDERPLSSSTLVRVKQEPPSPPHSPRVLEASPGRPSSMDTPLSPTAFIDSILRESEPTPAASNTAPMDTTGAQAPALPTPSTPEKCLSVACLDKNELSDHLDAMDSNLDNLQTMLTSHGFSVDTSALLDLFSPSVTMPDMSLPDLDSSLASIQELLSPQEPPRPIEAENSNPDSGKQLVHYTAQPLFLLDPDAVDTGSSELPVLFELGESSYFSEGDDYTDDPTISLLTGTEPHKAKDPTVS

[2] = molecular target: T2, RNA-binding protein pos-1 (Caenorhabditis elegans, UniProt G5EF15); assay: disruptors of C. elegans POS-1 RNA interaction – biochemical, fluorescence polarization, dose response (AID 1964);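 also: purified POS-1 fused to maltose binding protein made in E. coli; potency of compounds blocking POS-1 binding to fluorescent RNA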
T2 sequence (G5EF15 whole entry): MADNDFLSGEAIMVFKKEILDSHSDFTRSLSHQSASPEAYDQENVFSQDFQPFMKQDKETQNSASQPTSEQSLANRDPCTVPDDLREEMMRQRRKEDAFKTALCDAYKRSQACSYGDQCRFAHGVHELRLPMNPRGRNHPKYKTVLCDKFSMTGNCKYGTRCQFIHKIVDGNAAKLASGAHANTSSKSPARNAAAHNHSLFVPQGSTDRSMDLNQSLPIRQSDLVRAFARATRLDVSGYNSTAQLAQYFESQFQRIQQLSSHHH

[3] = molecular target: T3, Zinc finger protein mex-5 (Caenorhabditis elegans, UniProt Q9XUB2); assay: potency of MEX-5 RNA-binding blockers – biochemical, C. elegans, fluorescence polarization, dose response (AID 1960)
T3 sequence (Q9XUB2 whole entry): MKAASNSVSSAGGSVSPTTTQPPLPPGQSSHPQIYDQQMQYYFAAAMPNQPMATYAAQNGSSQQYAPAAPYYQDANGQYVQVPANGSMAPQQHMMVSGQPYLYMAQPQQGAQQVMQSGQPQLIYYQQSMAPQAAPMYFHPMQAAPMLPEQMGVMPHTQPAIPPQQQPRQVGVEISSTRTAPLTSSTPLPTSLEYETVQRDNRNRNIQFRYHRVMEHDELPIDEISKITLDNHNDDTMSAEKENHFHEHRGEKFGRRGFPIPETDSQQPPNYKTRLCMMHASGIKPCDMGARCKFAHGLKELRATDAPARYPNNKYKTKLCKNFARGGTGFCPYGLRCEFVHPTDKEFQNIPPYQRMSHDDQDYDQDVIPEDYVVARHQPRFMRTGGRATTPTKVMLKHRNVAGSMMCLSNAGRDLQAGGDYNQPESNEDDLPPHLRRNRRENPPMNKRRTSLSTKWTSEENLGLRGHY

[4] = molecular target: T4, Corticotropin-releasing factor receptor 2/Corticotropin-releasing factor-binding protein (Homo sapiens, UniProt P24387+Q13324); assay: Dose Response confirmation of uHTS hits for small molecule antagonists of the CRF-binding protein and CRF-R2 receptor complex.; format: functional; conditions: read-out: IC50_Mean
T4 sequence (Q13324 whole entry): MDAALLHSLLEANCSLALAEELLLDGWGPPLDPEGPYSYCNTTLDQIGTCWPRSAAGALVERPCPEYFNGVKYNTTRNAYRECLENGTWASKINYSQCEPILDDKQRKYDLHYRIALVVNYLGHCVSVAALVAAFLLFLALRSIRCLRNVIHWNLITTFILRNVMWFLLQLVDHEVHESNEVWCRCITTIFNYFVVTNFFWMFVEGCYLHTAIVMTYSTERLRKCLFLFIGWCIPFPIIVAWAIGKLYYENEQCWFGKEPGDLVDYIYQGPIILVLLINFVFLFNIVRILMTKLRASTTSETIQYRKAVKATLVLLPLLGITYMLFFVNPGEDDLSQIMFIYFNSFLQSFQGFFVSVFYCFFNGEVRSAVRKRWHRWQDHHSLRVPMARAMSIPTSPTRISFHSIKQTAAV
T4 sequence (P24387 whole entry): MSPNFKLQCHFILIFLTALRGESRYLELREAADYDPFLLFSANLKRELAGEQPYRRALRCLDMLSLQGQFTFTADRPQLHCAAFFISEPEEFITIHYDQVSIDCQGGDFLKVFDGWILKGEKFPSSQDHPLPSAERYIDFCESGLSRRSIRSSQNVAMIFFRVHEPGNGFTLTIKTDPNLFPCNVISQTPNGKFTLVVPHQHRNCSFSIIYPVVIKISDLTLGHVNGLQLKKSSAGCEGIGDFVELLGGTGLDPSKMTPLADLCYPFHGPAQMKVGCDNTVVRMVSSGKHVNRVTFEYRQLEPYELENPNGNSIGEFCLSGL

[5] = molecular target: T4, Corticotropin-releasing factor receptor 2/Corticotropin-releasing factor-binding protein; assay: activators of CRF receptor 2 with binding protein – uHTS hits, confirmation (AID 602473); format: functional; conditions: read-out: EC50_Mean
[6] = Luminescence Cell-Based Dose Retest to Confirm Inhibitors of Cancer Stem Cells. [Related pubchem assays (depositor defined):AID2717, AID2721]; format: functional; conditions: Homo sapiens
INS1 = assay: INS-1E survival protection against cytokine death – cell-based, luminescence, retest, dose response (AID 449756); format: functional; conditions: Rattus norvegicus;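 also: cell death triggered by IL-1 beta plus TNF-alpha plus IFN-gamma mixture; protective hits raise ATP signal compared with cytokine alone wells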
[7] = molecular target: T1, Heat shock factor protein 1; assay: decrease of HSF1-responsive luciferase luminescence – cell-based, NIH3T3, dose retest, confirmation (AID 2382); format: functional;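 also: NIH3T3 fibroblasts with HSF1-driven luciferase reporter stressed by proteasome inhibitor MG132; luminescence from HSF1-driven luciferase expression after 8 hours of MG132 stress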
[8] = tested on: Streptococcus sp. 'group A'; assay: Streptococcus pyogenes SK(-)GAS viability under kanamycin – luminescence, BacTiterGlo, confirmation, counter-screen for streptokinase expression inhibitor project, dose response (AID 1900); format: functional, organism-based
Streptokinase A = molecular target: T5, Streptokinase A (Streptococcus pyogenes serotype M1, UniProt P10520); assay: viability-normalized secreted streptokinase activity reduction – plasminogen activation absorbance, OD405, dose response (AID 1914); format: functional, Streptococcus pyogenes M1 GAS;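 also: secreted streptokinase activity via plasminogen activation per viability signal from cell pellet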
T5 sequence (P10520 whole entry): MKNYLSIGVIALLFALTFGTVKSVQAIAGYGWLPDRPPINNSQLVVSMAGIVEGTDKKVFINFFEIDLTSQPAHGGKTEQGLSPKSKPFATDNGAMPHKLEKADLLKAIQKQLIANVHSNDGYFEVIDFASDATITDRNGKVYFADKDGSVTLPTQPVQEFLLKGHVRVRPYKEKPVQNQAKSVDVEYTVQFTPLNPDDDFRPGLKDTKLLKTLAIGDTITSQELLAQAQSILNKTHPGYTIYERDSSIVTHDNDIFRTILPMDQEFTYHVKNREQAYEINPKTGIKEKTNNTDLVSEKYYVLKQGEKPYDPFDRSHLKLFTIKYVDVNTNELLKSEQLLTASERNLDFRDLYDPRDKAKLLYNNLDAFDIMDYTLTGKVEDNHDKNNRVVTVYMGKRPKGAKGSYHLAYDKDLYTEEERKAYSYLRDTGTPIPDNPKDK

Streptococcus = assay: GAS UMAA2166 growth inhibition – luminescence, BacTiterGlo, counter-screen for streptokinase expression inhibitor project, dose response (AID 1915); format: functional, organism-based;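 also: potency for reduction of bacterial viability or growth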

Cc1ccc(-c2csc(NC(=O)c3cccc([N+](=O)[O-])c3)n2)cc1
EC50 [1]: > 260 µM (inactive)

O=C(O)C(=O)/C(=C\c1ccc(Cl)cc1)c1ccc2ccccc2n1
EC50 [2]: > 300 µM (not active) | EC50 [3]: > 300 µM (not active)

CC(=O)N1CCc2c(sc(NC(=O)C3CCCCC3)c2C(N)=O)C1
EC50 [2]: 33.4 µM (active) | EC50 [3]: 30.1 µM (active)

CC1(C)CC(=O)/C(=C\c2cccc([N+](=O)[O-])c2)C(C)(C)N1
EC50 [1]: 18.6 µM (active)

CCOC(=O)Cc1nnc(Nc2cccc(C)c2)c2ccccc12
EC50 [1]: > 260 µM (inactive)

COc1ccc(-c2cccc(NS(=O)(=O)c3cccc([N+](=O)[O-])c3)c2)nn1
IC50 [4]: > 47.1 µM (inactive) | EC50 [5]: > 53 µM (inactive)

O=C(NN1C(=O)c2ccccc2NC1c1ccccn1)c1ccc([N+](=O)[O-])cc1 (configuration not stated)
EC50 [2]: 198 µM (active) | EC50 [3]: 8.55 µM (active)

c1ccc(-c2nc(CSc3n[nH]c(-c4cccs4)n3)cs2)cc1
EC50 [1]: > 260 µM (inactive)

COc1cc(-c2nnc(CSc3nnc(Nc4ccc(C(C)C)cc4)s3)o2)cc(OC)c1OC
EC50 [1]: 31.8 µM (active)

COc1ccc(C)cc1Nc1n[n+](-c2ccccc2)c(-c2c(OC)ccc3ccccc23)s1
AC50 [6]: 4.84 µM (active) | AC50 (INS1): 5.74 µM (active)

Cc1ccc(OCc2ccc(C#N)cc2)c(C(=O)c2cc(C#N)c(=O)n(C3CC3)c2)c1
EC50 [1]: > 260 µM (inactive)

COC(=O)c1ccccc1-n1cccc1C(=O)NP(=O)(N1CCOCC1)N1CCOCC1
EC50 [2]: > 300 µM (not active) | EC50 [3]: > 300 µM (not active)

CCCCn1c(N)c(N(CC(C)C)C(=O)C2CCN(S(=O)(=O)c3ccc(C)c(C)c3)CC2)c(=O)[nH]c1=O
EC50 [1]: > 260 µM (inactive)

N=c1c(C(=O)NC2CCCC2)cc2c(=O)n3ccccc3nc2n1Cc1ccccc1
EC50 [2]: 31.6 µM (active) | EC50 [3]: 41.3 µM (active) | EC50 [7]: > 195 µM (not active)

Cc1ccc(CSc2nc3sc(C)c(C)c3c(=O)n2Cc2ccco2)cc1
EC50 [8]: > 150 µM (not active) | EC50 (Streptokinase A): 99.5 µM (active) | EC50 (Streptococcus): > 150 µM (not active) | AC50 [6]: 23.3 µM (active)

Cc1ccc(N=C2NC(=O)CS2)cc1
EC50 [1]: > 260 µM (inactive)

O=C(O)C1=C[C@@H](c2ccc(Br)cc2)C[C@@H](OCc2ccc(CO)cc2)O1
IC50 [4]: > 47.1 µM (inactive) | EC50 [5]: > 53 µM (inactive)

CC1(C)CC2CC(C)(CN2/C=C2/CCCCC2=O)C1 (configuration not stated)
IC50 [4]: > 47.1 µM (inactive) | EC50 [5]: > 53 µM (inactive)

O=C(C[n+]1cccc(C(=O)Nc2ccccc2)c1)c1ccc([N+](=O)[O-])cc1
EC50 [1]: 64.6 µM (active)

CCOc1cc(/C=C2\CCCc3c2nc2ccccc2c3C(=O)O)ccc1OC
EC50 [1]: > 260 µM (inactive)

Oc1ccc(C2=CSC3=NCCN23)cc1O
EC50 [2]: 70.6 µM (active) | EC50 [3]: 18.6 µM (active)

O=C(Nc1cccc(Cl)c1)Nc1sccc1-c1nc2ccccc2s1
AC50 [6]: 39 µM (active)

Cn1cc(S(=O)(=O)Nc2ccc(Br)cc2F)c(=O)n(C)c1=O
IC50 [4]: > 47.1 µM (inactive) | EC50 [5]: > 53 µM (inactive)

CCc1cccc(NS(=O)(=O)c2ccc3c(c2)NC(=O)C(C)S3)c1 (configuration not stated)
EC50 [1]: > 260 µM (inactive)

COc1ccc(-n2c(NNC(C)=O)nc3sc4c(c3c2=O)CCCC4)cc1
EC50 [2]: > 300 µM (not active) | EC50 [3]: > 300 µM (not active)

CCCn1cc2c3c(cccc31)C1CC(C)CN(C)C1C2 (configuration not stated)
EC50 [2]: 36 µM (active) | EC50 [3]: 29.6 µM (active)

CC(C)(C)NC(=O)C(c1ccncc1)N(C(=O)Cn1nnc(-c2cccs2)n1)C1CCCCC1 (configuration not stated)
EC50 [1]: > 260 µM (inactive)

Oc1c2cnnc-2nc(SCc2ccccc2F)n1-c1ccc(Br)cc1
AC50 [6]: 3.3 µM (active)

N#Cc1c(-c2ccccc2)cc(-c2ccccc2)nc1SCC(=O)NCC(=O)O
EC50 [5]: 12.2 µM (active)

Cc1ccc(CNc2c(C=O)c(O)nc3ccccc23)cc1
EC50 [1]: > 260 µM (inactive)

C/C(=C\C(=O)Nc1cscc1C)C(=O)O
EC50 [1]: > 260 µM (inactive)

Cc1c(OCC(=O)NCCCn2ccnc2)ccc2c3c(c(=O)oc12)CCCC3
EC50 [1]: > 260 µM (inactive)

COC(=O)C12CCc3c(ccc4cc(OC)ccc34)C1=CC(=O)C2 (configuration not stated)
IC50 [4]: > 47.1 µM (inactive) | EC50 [5]: > 53 µM (inactive)

c1ccc(-c2sc3ccccc3c2-c2ccc(OCCN3CCOCC3)cc2)cc1
AC50 [6]: 2.28 µM (active)

O=C(O)CCC(=O)Nc1ccc(Br)c(Cl)c1
IC50 [4]: < 0.368 µM (active) | EC50 [5]: > 53 µM (inactive)

Cc1cc(C)nc(NNC2=CC(=O)CC(C)(C)C2)n1
EC50 [2]: 84.6 µM (active) | EC50 [3]: 10.9 µM (active)

CN(/N=C/c1cc(Cl)cc(Cl)c1O)C(=S)NC(C)(C)C
AC50 [6]: 2.5 µM (active)
